The results in this text go back to patent publication US7217711B2, “Piperazin-1-yl and 2-([1,4]diazepan-1-yl)-imidazo[4,5-d]-pyridazin-4-ones, the preparation thereof and their use as pharmaceutical compositions” (Boehringer Ingelheim International GmbH, priority 2003, dated 2007).

T1 sequence (P27487 whole entry): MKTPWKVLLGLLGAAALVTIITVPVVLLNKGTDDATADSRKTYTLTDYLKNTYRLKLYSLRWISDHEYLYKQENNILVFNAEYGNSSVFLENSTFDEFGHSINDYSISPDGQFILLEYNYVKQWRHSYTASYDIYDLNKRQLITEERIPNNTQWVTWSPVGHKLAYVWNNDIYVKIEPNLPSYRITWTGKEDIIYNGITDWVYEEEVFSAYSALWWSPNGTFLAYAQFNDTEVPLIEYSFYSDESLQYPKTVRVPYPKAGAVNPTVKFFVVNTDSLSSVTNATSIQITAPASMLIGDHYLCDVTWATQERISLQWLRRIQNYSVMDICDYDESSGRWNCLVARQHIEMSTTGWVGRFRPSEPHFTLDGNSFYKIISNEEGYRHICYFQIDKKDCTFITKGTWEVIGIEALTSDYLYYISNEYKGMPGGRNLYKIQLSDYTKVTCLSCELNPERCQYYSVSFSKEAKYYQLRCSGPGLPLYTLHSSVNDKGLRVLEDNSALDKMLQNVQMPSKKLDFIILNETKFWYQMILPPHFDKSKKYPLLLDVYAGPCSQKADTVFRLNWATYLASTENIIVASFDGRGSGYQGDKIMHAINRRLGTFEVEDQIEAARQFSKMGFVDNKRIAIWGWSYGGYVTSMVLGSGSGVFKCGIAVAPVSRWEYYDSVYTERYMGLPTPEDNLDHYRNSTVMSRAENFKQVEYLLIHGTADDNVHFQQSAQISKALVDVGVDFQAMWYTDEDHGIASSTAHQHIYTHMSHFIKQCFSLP

One data set has as its target T1, DPP-IV (Homo sapiens, UniProt P27487).
T1 construct: an extract of the human colon carcinoma cell line Caco-2 is used as the DPP IV source; endogenous in cells; host or cells: Caco-2 (human colon carcinoma), differentiated to induce DPP-IV expression; Nonidet-P40 solubilised extract
The data set can be described thus: DPP-IV assay with extract of Caco-2 cells as DPP IV source, AFC substrate, fluorescence. The data set is classed as biochemical. Particulars: extract of human colon carcinoma cell line Caco-2; substrate 100 μM; 60 minutes at ambient temperature; read-out: DPP IV inhibition IC50. As for the experimental part: The cell extract was obtained from cells solubilised in a buffer (10 mM Tris HCl, 0.15 M NaCl, 0.04 t.i.u. aprotinin, 0.5% Nonidet-P40, pH 8.0) by centrifugation at 35,000 g for 30 minutes at 4° C. (to remove cell debris).
The DPP-IV assay was carried out as follows:
50 μl of substrate solution (AFC; AFC is amido-4-trifluoromethylcoumarin), final concentration 100 μM, were placed in black microtitre plates. 20 μl of assay buffer (final concentrations 50 mM Tris HCl pH 7.8, 50 mM NaCl, 1% DMSO) was pipetted in. The reaction was started by the addition of 30 μl of solubilised Caco-2 protein (final concentration 0.14 μg of protein per well). The test substances under investigation were typically added prediluted to 20 μl, while the volume of assay buffer was then reduced accordingly. The reaction was carried out at ambient temperature, the incubation period was 60 minutes. […] Dummy values (corresponding to 0% activity) were obtained in mixtures with no Caco-2 protein (volume replaced by assay buffer), control values (corresponding to 100% activity) were obtained in mixtures without any added substance.
For orientation: IC50 means the concentration needed to halve the response being measured. Consider `CC#CCn1c(N2CCCNCC2)nc2cnn(Cc3cc(C)c4nc(C)c(C)nc4c3)c(=O)c21` [1(2), 2-([1,4]diazepan-1-yl)-3-(2-butyn-1-yl)-5-[(2,3,8-trimethyl-quinoxalin-6-yl)methyl]-3,5-dihydro-imidazo[4,5-d]pyridazin-4-one], for which the IC50 came to 17 nM. Same read-out and setting: in the case of `CC#CCn1c(N2CCNCC2)nc2cnn(Cc3nc4c(C)cccc4o3)c(=O)c21` [1(9), 2-(piperazin-1-yl)-3-(2-butyn-1-yl)-5-[(4-methyl-benzoxazol-2-yl)methyl]-3,5-dihydro-imidazo[4,5-d]pyridazin-4-one] it was 3 nM; in that of `CC#CCn1c(N2CCNCC2)nc2cnn(Cc3ccc4c(c3)nnn4C)c(=O)c21` [1(11), 2-(piperazin-1-yl)-3-(2-butyn-1-yl)-5-[(1-methyl-1H-benzotriazol-5-yl)methyl]-3,5-dihydro-imidazo[4,5-d]pyridazin-4-one], 2 nM; in that of `CC#CCn1c(N2CCCNCC2)nc2cnn(Cc3ccc4c(c3)nnn4C)c(=O)c21` [1(12), 2-([1,4]diazepan-1-yl)-3-(2-butyn-1-yl)-5-[(1-methyl-1H-benzotriazol-5-yl)methyl]-3,5-dihydro-imidazo[4,5-d]pyridazin-4-one], 4 nM. The same measure, in the same setting: the same measure for `CC#CCn1c(N2CCCNCC2)nc2cnn(Cc3nc4c(C)cccc4o3)c(=O)c21` [1(13), 2-([1,4]diazepan-1-yl)-3-(2-butyn-1-yl)-5-[(4-methyl-benzoxazol-2-yl)methyl]-3,5-dihydro-imidazo[4,5-d]pyridazin-4-one]: 5 nM; for `CC#CCn1c(N2CCNCC2)nc2cnn(Cc3cc(C)c4nc(C)c(C)nc4c3)c(=O)c21` [Example 2, 2-(piperazin-1-yl)-3-(2-butyn-1-yl)-5-[(2,3,8-trimethyl-quinoxalin-6-yl)methyl]-3,5-dihydro-imidazo[4,5-d]pyridazin-4-one]: 14 nM.

For the next data set, the system named is rats. The data set can be described thus: Tolerability in rats after oral administration. The data set is classed as in vivo. Conditions: oral administration of 10 mg/kg.
In the case of `CC#CCn1c(N2CCNCC2)nc2cnn(Cc3nc(C)c4ccccc4n3)c(=O)c21` [Example 1, 2-(piperazin-1-yl)-3-(2-butyn-1-yl)-5-[(4-methyl-quinazolin-2-yl)methyl]-3,5-dihydro-imidazo[4,5-d]pyridazin-4-one], the toxic side effects entry is “no toxic side effects could be detected”.
